From ChEMBL document CHEMBL5512638, “Novel pyrrole based CB2 agonists: New insights on CB2 receptor role in regulating neurotransmitters' tone” (Eur J Med Chem, 2024) come the findings set out here.

Molecules are shown by their SMILES.

For data set [1], the target named is T1, Cannabinoid receptor 2 (Homo sapiens, UniProt P34972). Nature of the data set: Displacement of [3H]CP55940 from recombinant human CB2 receptor expressed in HEK293 cell membrane incubated for 90 mins by competition binding assay. In kind it is cell membranes. (In general: Loss of bound radioactivity is the signal in a displacement assay; it reports binding, not function.)

Data set [2] deals with T2, Cannabinoid receptor 1 (Homo sapiens, UniProt P21554). Nature of the data set: Displacement of [3H]CP55940 from recombinant human CB1 receptor expressed in HEK293 cell membrane incubated for 90 mins by competition binding assay. The data set is classed as cell membranes.
In data set [3] the target is T2, Cannabinoid receptor 1. Nature of the data set: Displacement of [3H]CP55940 from recombinant human CB1 receptor expressed in HEK293 cell membrane assessed as inhibition constant incubated for 90 mins by competition binding assay. In kind it is cell membranes.
Data set [4] concerns the target T1, Cannabinoid receptor 2. Nature of the data set: Displacement of [3H]CP55940 from recombinant human CB2 receptor expressed in HEK293 cell membrane assessed as inhibition constant incubated for 90 mins by competition binding assay. In kind it is cell membranes.
A short description of data set [5]: Chemical stability of compound in phosphate buffer at pH 7.4 assessed as compound remaining at 5 uM measured after 0.5 hrs by UHPLC-MS analysis. The conditions noted are these: read-out: Stability. In kind it is physicochemical.
The nature of data set [6]: Chemical stability of compound in phosphate buffer at pH 7.4 assessed as compound remaining at 5 uM measured after 2 hrs by UHPLC-MS analysis. In kind it is physicochemical. The conditions noted are these: read-out: Stability.
Data set [7] addresses T1, Cannabinoid receptor 2. Nature of the data set: Agonist activity at human CB2 receptor expressed in CHO-K1 cells assessed as reduction in NKH-477 induced cAMP production by chemiluminescence based cAMP hunter assay. The data set is classed as functional, cell-based. In general terms: Cyclic AMP is a second messenger, typically raised through Gs and lowered through Gi signalling.

Data set [8] is described as follows: Chemical stability of compound in phosphate buffer at pH 7.4 assessed as compound remaining at 5 uM measured after 1 hrs by UHPLC-MS analysis. In kind it is physicochemical. The conditions noted are these: read-out: Stability.
The nature of data set [9]: Chemical stability of compound in phosphate buffer at pH 7.4 assessed as compound remaining at 5 uM measured after 1.5 hrs by UHPLC-MS analysis. In kind it is physicochemical. The following applies: read-out: Stability.

T2 sequence (P21554 whole entry): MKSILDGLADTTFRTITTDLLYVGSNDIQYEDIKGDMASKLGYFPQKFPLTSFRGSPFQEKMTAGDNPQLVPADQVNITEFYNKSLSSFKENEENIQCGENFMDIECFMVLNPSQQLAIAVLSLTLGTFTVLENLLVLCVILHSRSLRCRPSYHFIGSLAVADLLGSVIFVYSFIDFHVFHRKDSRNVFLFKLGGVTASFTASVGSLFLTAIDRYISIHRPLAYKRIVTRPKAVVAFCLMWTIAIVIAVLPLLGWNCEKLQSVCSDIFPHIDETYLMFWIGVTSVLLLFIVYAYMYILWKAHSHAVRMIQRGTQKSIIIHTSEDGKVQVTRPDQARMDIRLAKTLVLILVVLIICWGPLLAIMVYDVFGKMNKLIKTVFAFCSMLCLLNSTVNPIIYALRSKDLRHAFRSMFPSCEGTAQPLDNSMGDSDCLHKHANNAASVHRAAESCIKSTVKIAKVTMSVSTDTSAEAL
T1 sequence (P34972 whole entry): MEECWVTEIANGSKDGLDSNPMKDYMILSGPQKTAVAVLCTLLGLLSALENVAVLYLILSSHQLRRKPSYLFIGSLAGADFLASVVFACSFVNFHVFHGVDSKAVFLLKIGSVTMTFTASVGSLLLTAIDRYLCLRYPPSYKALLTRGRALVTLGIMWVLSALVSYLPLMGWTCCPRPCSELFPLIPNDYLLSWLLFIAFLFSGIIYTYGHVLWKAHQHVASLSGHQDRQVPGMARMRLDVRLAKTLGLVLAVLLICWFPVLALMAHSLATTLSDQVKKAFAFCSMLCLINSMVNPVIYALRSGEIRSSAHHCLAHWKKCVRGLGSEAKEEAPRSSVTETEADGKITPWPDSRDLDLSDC

Broadly, the IC50 is the concentration at which inhibition is half-maximal. A word on the Ki: it is a measure of affinity in units of concentration, obtained from inhibition or displacement. As for `O=C(CCO)N[C@@H](Cc1ccc(O)cc1)C(=O)Nc1ccc(O)cc1`, the IC50 at Cannabinoid receptor 2 [1] (read-out: IC50) and on Cannabinoid receptor 1 [2] (read-out: IC50) was greater than 10 µM each time. The Ki on Cannabinoid receptor 1 [3] (read-out: Ki) and at Cannabinoid receptor 2 [4] (read-out: Ki) was greater than 10 µM throughout.
As to `O=C(O)CCCn1cccc1C(=O)c1ccccc1Cl`, the IC50 at Cannabinoid receptor 2 [1] (read-out: IC50) and on Cannabinoid receptor 1 [2] (read-out: IC50) was greater than 10 µM in each case. Besides, the Ki at Cannabinoid receptor 1 [3] (read-out: Ki) and at Cannabinoid receptor 2 [4] (read-out: Ki) was greater than 10 µM in each case.
On to `CCOC(=O)CCCn1cccc1C(=O)c1ccccc1Cl`, for which the IC50 at Cannabinoid receptor 2 [1] (read-out: IC50) and at Cannabinoid receptor 1 [2] (read-out: IC50) was greater than 10 µM throughout. Also, the Ki on Cannabinoid receptor 1 [3] (read-out: Ki) and on Cannabinoid receptor 2 [4] (read-out: Ki) was greater than 10 µM throughout.
Take `CCCCCn1cccc1C(=O)c1ccc(C)cc1`: the IC50 on Cannabinoid receptor 2 [1] (read-out: IC50) and on Cannabinoid receptor 1 [2] (read-out: IC50) was greater than 10 µM throughout. For the same compound, the Ki on Cannabinoid receptor 1 [3] (read-out: Ki) and on Cannabinoid receptor 2 [4] (read-out: Ki) was greater than 10 µM throughout.
In the case of `O=C(CO)Nc1cccc(NC(=O)c2cccnc2)c1`, the IC50 at Cannabinoid receptor 2 [1] (read-out: IC50) and on Cannabinoid receptor 1 [2] (read-out: IC50) was greater than 10 µM each time. For the same compound, the Ki on Cannabinoid receptor 1 [3] (read-out: Ki) and at Cannabinoid receptor 2 [4] (read-out: Ki) was greater than 10 µM throughout.
Turning to `Nc1cccc(C(=O)Nc2cccc(NC(=O)CO)c2)c1`, the IC50 at Cannabinoid receptor 2 [1] (read-out: IC50) and at Cannabinoid receptor 1 [2] (read-out: IC50) was greater than 10 µM each time. Moreover, the Ki on Cannabinoid receptor 1 [3] (read-out: Ki) and at Cannabinoid receptor 2 [4] (read-out: Ki) was greater than 10 µM throughout.
Take `O=C(NCc1ccco1)c1cccn1Cc1ccc(-c2ccccc2)cc1`: the IC50 at Cannabinoid receptor 2 [1] (read-out: IC50) is 1.47 µM; at Cannabinoid receptor 1 [2] (read-out: IC50) it was greater than 10 µM. The Ki on Cannabinoid receptor 1 [3] (read-out: Ki) was greater than 10 µM; on Cannabinoid receptor 2 [4] (read-out: Ki) it was 0.23 µM.
`O=C(CCO)N[C@@H](Cc1c[nH]c2ccccc12)C(=O)Nc1ccc(O)cc1`: the IC50 at Cannabinoid receptor 2 [1] (read-out: IC50) and at Cannabinoid receptor 1 [2] (read-out: IC50) was greater than 10 µM throughout. In addition, the inhibitory constant (Ki) on Cannabinoid receptor 1 [3] (read-out: Ki) and at Cannabinoid receptor 2 [4] (read-out: Ki) was greater than 10 µM each time.
Regarding `N=C(N)NCCCn1cccc1C(=O)c1ccccc1Cl`, the IC50 at Cannabinoid receptor 2 [1] (read-out: IC50) and at Cannabinoid receptor 1 [2] (read-out: IC50) was greater than 10 µM each time. The inhibition constant (Ki) on Cannabinoid receptor 1 [3] (read-out: Ki) and at Cannabinoid receptor 2 [4] (read-out: Ki) was greater than 10 µM each time.
Regarding `CC(=O)OCCCCn1cccc1C(=O)c1ccccc1Cl`, the concentration for half-maximal inhibition (IC50) is 7.91 µM at Cannabinoid receptor 2 [1] (read-out: IC50) and greater than 10 µM at Cannabinoid receptor 1 [2] (read-out: IC50). Also, the Ki is greater than 10 µM on Cannabinoid receptor 1 [3] (read-out: Ki) and 1.26 µM on Cannabinoid receptor 2 [4] (read-out: Ki).
Regarding `O=C(Nc1ccc(O)cc1)[C@@H]1Cc2ccccc2CN1C(=O)CCO`, the IC50 at Cannabinoid receptor 2 [1] (read-out: IC50) and on Cannabinoid receptor 1 [2] (read-out: IC50) was greater than 10 µM in each case. Further, the inhibition constant (Ki) at Cannabinoid receptor 1 [3] (read-out: Ki) and on Cannabinoid receptor 2 [4] (read-out: Ki) was greater than 10 µM in each case.
As for `O=C(OCCCCn1cccc1C(=O)c1ccccc1Cl)c1ccccc1`, the IC50 at Cannabinoid receptor 2 [1] (read-out: IC50) and at Cannabinoid receptor 1 [2] (read-out: IC50) was greater than 10 µM each time. The inhibition constant Ki at Cannabinoid receptor 1 [3] (read-out: Ki) and at Cannabinoid receptor 2 [4] (read-out: Ki) was greater than 10 µM throughout.
With `CC(=O)NCCCCn1cccc1C(=O)c1ccccc1Cl`, the IC50 at Cannabinoid receptor 2 [1] (read-out: IC50) and at Cannabinoid receptor 1 [2] (read-out: IC50) was greater than 10 µM throughout. For the same compound, the Ki on Cannabinoid receptor 1 [3] (read-out: Ki) and on Cannabinoid receptor 2 [4] (read-out: Ki) was greater than 10 µM each time.
For `O=C(O)CC(=O)N[C@@H](Cc1c[nH]c2ccccc12)C(=O)Nc1ccc(O)cc1`, the half-inhibitory concentration (IC50) on Cannabinoid receptor 2 [1] (read-out: IC50) and at Cannabinoid receptor 1 [2] (read-out: IC50) was greater than 10 µM throughout. In addition, the Ki at Cannabinoid receptor 1 [3] (read-out: Ki) and at Cannabinoid receptor 2 [4] (read-out: Ki) was greater than 10 µM in each case.
`Cc1ccc(S(=O)(=O)n2cccc2C(=O)c2ccc(Cl)cc2)cc1`: the IC50 result on Cannabinoid receptor 2 [1] (hek293) and at Cannabinoid receptor 1 [2] (hek293) was “Not Determined(Insoluble)” each time. For the same compound, the Ki result on Cannabinoid receptor 1 [3] (hek293) and at Cannabinoid receptor 2 [4] (hek293) was “Not Determined(Insoluble)” throughout.
For `O=C(c1ccccc1Cl)c1cccn1Cc1cccc(O)c1`, the IC50 on Cannabinoid receptor 2 [1] (read-out: IC50) and at Cannabinoid receptor 1 [2] (read-out: IC50) was greater than 10 µM throughout. For the same compound, the Ki at Cannabinoid receptor 1 [3] (read-out: Ki) and at Cannabinoid receptor 2 [4] (read-out: Ki) was greater than 10 µM in each case.
For the compound `O=C(NCc1ccc(O)cc1)c1cccn1Cc1ccc(F)cc1`, the IC50 on Cannabinoid receptor 2 [1] (read-out: IC50) and at Cannabinoid receptor 1 [2] (read-out: IC50) was greater than 10 µM throughout. For the same compound, the Ki at Cannabinoid receptor 1 [3] (read-out: Ki) and at Cannabinoid receptor 2 [4] (read-out: Ki) was greater than 10 µM each time.
Take `Cc1ccc(S(=O)(=O)n2cccc2C(=O)c2ccccc2)cc1`: the IC50 on Cannabinoid receptor 2 [1] (read-out: IC50) and on Cannabinoid receptor 1 [2] (read-out: IC50) was greater than 10 µM in each case. Also, the Ki at Cannabinoid receptor 1 [3] (read-out: Ki) and on Cannabinoid receptor 2 [4] (read-out: Ki) was greater than 10 µM throughout.
Regarding `O=C(c1ccccc1Cl)c1cccn1Cc1ccc(O)cc1`, the concentration for half-maximal inhibition (IC50) on Cannabinoid receptor 2 [1] (read-out: IC50) and at Cannabinoid receptor 1 [2] (read-out: IC50) was greater than 10 µM in each case. For the same compound, the Ki on Cannabinoid receptor 1 [3] (read-out: Ki) and at Cannabinoid receptor 2 [4] (read-out: Ki) was greater than 10 µM throughout.
One may read the EC50 as the concentration that produces a half-maximal response. Consider `O=C(NC12CC3CC(CC(C3)C1)C2)c1cccn1Cc1ccc(F)cc1`, for which the values for the IC50 at Cannabinoid receptor 2 [1] (read-out: IC50) and at Cannabinoid receptor 1 [2] (read-out: IC50) were 0.07 µM and greater than 10 µM, respectively. Moreover, in data set [5], the remaining at 0.5 h, 5 µM stood at 98.6%. Besides, the remaining at 2 h, 5 µM in data set [6] was 102%. At Cannabinoid receptor 2 [7], the EC50 is 2.36 µM. Also, the remaining at 1 h, 5 µM in [8] amounted to 98.8%. For the same compound, the remaining at 1.5 h, 5 µM in [9] was determined as 99.2%. Moreover, the Ki was greater than 10 µM on Cannabinoid receptor 1 [3] (read-out: Ki) and 0.01 µM at Cannabinoid receptor 2 [4] (read-out: Ki).
